Results published in article PMC10113214 (Scientific Reports, 2023).

Experiments:
Rheology of hydrogels = type: physicochemical; conditions: 1% hydrogel, 37 °C
Description: Rheological parameters of the hydrogels were identified using an MCR 302 rheometer (Anton Paar GmbH, Graz, Austria). The rheometer was equipped with a CP50-1 stainless steel cone-and-plate system of 50 mm diameter, 1° cone angle and 50 µm cone truncation and a Peltier controlled temperature unit. An aliquot of 900 µL of 1% hydrogel was applied to a plate cone. The linear viscoelastic (LVE) region was determined through an amplitude sweeps: shear strain (0.01–100% at 6 rad s^−1) and shear stress (0.001–10 Pa at 6.28 rad s^−1). Frequency sweep were measured from 0.01 to 100 rad s^−1 at 2.5% strain. The frequency dependence of the storage modulus (G’) and loss modulus (G”) of the hydrogels were measured at 37 °C. All experiments were carried out in triplicate and reported as the mean of three repeats.

[1] = Circular dichroism, conformation and thermal stability of β-sheet; type: physicochemical
Description: The molar ellipticity of peptides were registered on a Jasco J-815 spectrometer (JASCO, Easton, MD, USA). Solutions of peptide hybrids were prepared in water solution (10 mg/ml), incubated at 37 °C for 4 h and then diluted to a final concentration of 0.20 mg/ml. CD spectra measurements were performed at 25 °C, 30 °C, 35 °C, 40 °C, 45 °C, 50 °C, 55 °C and 60 °C, at 190–260 nm wavelength and at a scan speed of […]. The background of the solvent was subtracted. The results are presented as the relationship of mean residue molar ellipticity (MRME) [deg × cm^2 × dmol^−1] to wavelength [nm]. Measurements were performed in triplicate. In order to determine the peptides’ denaturation temperatures, the molar ellipticity rotatory angle at a fixed wavelength of 196 nm, [θ]196, was measured as a function of temperature (max 100 °C). CD temperature measurements were carried out up to a temperature of 100 °C. Above this temperature, the cure was extrapolated with GraphPad Prism 8 software using the 4PL curve fit function. The denaturation temperature was determined as the temperature at which the change in ellipticity (θ) was half complete.

46BR.1N fibroblasts = assay: LDH cytotoxicity assay, 46BR.1N; type: cell-based, human; conditions: 150 µg/ml, 48 h, 3 independent experiments, n = 12
Description: Human HaCaT keratinocytes (DKFZ, Heidelberg, Germany)[47],[48], the human dermal fibroblast 46BR.1N cell line (ECACC, Sigma Aldrich Co.) and human primary dermal fibroblasts used in this study were routinely cultured in culture flasks (growth surface area: 25 cm^2) in DMEM-HG medium supplemented with 10% fetal bovine serum, 100 U/mL penicillin and […] streptomycin under standard conditions.
Briefly, the HaCaT and 46BR.1N cells were seeded in 96-well plates at a density of 5000 per well. Cell stimulation with RADA derivatives was performed using a protocol described before[49],[50]. Both assays were performed according to the manufacturers’ instructions (XTT- Roche, Cat. No. 11465015001; LDH- Takara, Cat. No. MK401).

[2] = tested on: full-thickness excisional dorsal skin wounds; assay: Skin wound healing model in mice; type: in vivo, BALB/c mice
Description: Eight to ten-week-old BALB/c female mice were used for these experiments. All experimental procedures were approved by the Local Ethics Committee for Animal Experimentation in Bydgoszcz, Poland (Approval No. 49/2016). The study was conducted in compliance with the ARRIVE gudidelines. All animal handling methods were carried out in accordance with European Union Commission Recommendation of 18 June 2007 on guidelines for the accommodation and care of animals used for experimental and other scientific purposes. Before experiments, mice were randomized and divided into groups comprising six individuals. The mice were anaesthetized with inhaled 2–5% isoflurane. The skin on the dorsum was shaved and disinfected. After the skin was folded and raised cranially and caudally along the spine, the mouse was placed in a lateral position, and the folded skin was pierced with a 6.0 mm biopsy punch to make two through-and-through symmetrical wounds. Next, 10 µL of peptide hybrid hydrogel was applied onto each wound. Every gel was prepared in sterile conditions in biological safety cabinet, using sterile water to final concentration of 10 mg/ml (1%). Then the gels were incubated for 24 h allowing it to assemble. Control mice were treated with RADA16-I. The wounds were covered with a transparent Tegaderm TM dressing to protect the wound from outer environment of the cage and other animals. It was fastened with an adhesive plaster wrapped around the animal’s torso. The peptide hybrids were applied daily to the wounds for five consecutive days. The dressings were replaced daily in the first five days of the experiment and every second day until the end of the second week of the experiment. To measure the wound areas the wounds were photographed with a ruler placed next to the injury site. Wound areas were calculated using the computer-assisted image analysis program ImageJ[51].

[3] = molecular target: T1, Human neutrophil elastase (Homo sapiens, UniProt P08246); assay: Elastase enzymatic cleavage; type: in vitro ADME; conditions: human neutrophil elastase 150 nM, peptide 1 mM, 30 min, 37 °C; for identified fragments of peptides after elastase digestion (most abundant MS signals): 300 rpm, 0.1 M Tris HCl, 500 mM NaCl, 0.05% Triton X-100, 20 mM CaCl2 pH 7.5, HPLC and MALDI or LC-MS
T1 construct: purchased Sigma-Aldrich
T1 sequence (P08246 30-267): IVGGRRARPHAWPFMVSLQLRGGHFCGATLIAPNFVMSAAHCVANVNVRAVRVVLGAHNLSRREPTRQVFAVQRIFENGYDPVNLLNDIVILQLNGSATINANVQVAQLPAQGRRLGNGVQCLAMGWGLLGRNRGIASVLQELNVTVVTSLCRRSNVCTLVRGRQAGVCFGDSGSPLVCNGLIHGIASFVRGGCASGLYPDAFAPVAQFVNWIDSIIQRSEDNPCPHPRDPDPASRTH
Description: Human neutrophil elastase (EC No. 3.4.21.37, Sigma-Aldrich) was used to study peptide susceptibility to that enzyme. Peptides were dissolved in 0.1 M Tris HCl, 500 mM NaCl, 0.05% Triton X-100, 20 mM CaCl2 pH 7.5 buffer mixture. Peptides (final concentration 1 mM) were mixed with the enzyme (final concentration 150 nM) and incubated for 30 min. in a thermoshaker (37 °C, 300 rpm). The reaction was stopped by a 10% aqueous solution of TFA. The results were analyzed using HPLC and MALDI or LC–MS. Details of this experiment are described in the Supplementary Data.

[4] = Transmission electron microscopy of nanofibres; type: physicochemical; conditions: 1% gel in PBS diluted to 0.001%, uranyl acetate stain
Description: 1% gel solutions were prepared and incubated in PBS. The samples were then diluted to 0.001% concentration. A drop of solution was applied to a microcellulose membrane and stained with a 1.5% solution of uranyl acetate. The images were registered on a Tecnai Spirit BioTwin FEI Transmission Electron Microscope operating at 120 kV.

storage modulus G’ (Rheology of hydrogels; cone-plate, frequency sweep 0.01–100 rad s−1 at 2.5% strain (Fig. 9 legend: 1%), mean of three repeats): 550 Pa
shear strain above which the gel behaves like a liquid (G” > G’) (Rheology of hydrogels; strain sweep, ω = 6.28 rad/s): above 30%
heat stability of β-sheet structure (rank) ([1]; CD scans at different temperatures): highest
temperature of first disruption of the β-sheets ([1]; CD, [θ]196 nm as function of temperature 4–100 °C, gel 10 mg/ml in water, 37 °C 4 h, diluted to 0.20 mg/ml, decrease of molar ellipticity): ~65 °C
transition temperature (half β-conformation, half disordered) ([1]; CD, [θ]196 nm vs temperature, 0.20 mg/ml in water, above 100 °C curve extrapolated, 4PL fit): 94 °C
identified fragments of peptides after elastase digestion (most abundant MS signals) ([3]; fragment Ac-(RADA)4-GGG-AAPV-COOH): Ac-(RADA)4-GGG-AAPV-COOH
identified fragments of peptides after elastase digestion (most abundant MS signals) ([3]; fragment NH2 -GHK-NH2): NH2 -GHK-NH2
main / predominant fragments of elastase digestion ([3]; pH 7.5 buffer, HPLC, mass spectrometry): Gly^26His^27Lys^28
fibre thickness (TEM) [4]: about 3 nm
Structure (SMILES): CC(=O)N[C@@H](CCCNC(=N)N)C(=O)N[C@@H](C)C(=O)N[C@@H](CC(=O)O)C(=O)N[C@@H](C)C(=O)N[C@@H](CCCNC(=N)N)C(=O)N[C@@H](C)C(=O)N[C@@H](CC(=O)O)C(=O)N[C@@H](C)C(=O)N[C@@H](CCCNC(=N)N)C(=O)N[C@@H](C)C(=O)N[C@@H](CC(=O)O)C(=O)N[C@@H](C)C(=O)N[C@@H](CCCNC(=N)N)C(=O)N[C@@H](C)C(=O)N[C@@H](CC(=O)O)C(=O)N[C@@H](C)C(=O)NCC(=O)NCC(=O)NCC(=O)N[C@@H](C)C(=O)N[C@@H](C)C(=O)N1CCC[C@H]1C(=O)N[C@H](C(=O)NCC(=O)NCC(=O)NCC(=O)N[C@@H](Cc1c[nH]cn1)C(=O)N[C@@H](CCCCN)C(N)=O)C(C)C [RADA-GHK, Ac-(Arg-Ala-Asp-Ala)4-Gly-Gly-Gly-Ala-Ala-Pro-Val-Gly-Gly-Gly-His-Lys-NH2]
cytotoxicity (LDH), slight effect (46BR.1N fibroblasts): ca. 15%
wound closure on day 7 ([2]; BALB/c female mice, 6.0 mm punch dorsal wounds, 10 µL 1% hydrogel topically daily for five days, n = 6, SD): 41.8 ± 16.1%
wound healing compared to RADA16-I ([2]; BALB/c mice, 1% hydrogel topically, day 2 up to day 14): Accelerated wound healing
